For data set [1] the following is noted: cited from earlier work.
For data set [2], the system named is tissue plasminogen activator (t-PA). Put plainly: Monitoring drug treatment: t-PA mRNA by one step real-time RT-PCR from HeLa cell lysate. Type of data set: cell-based, human. The settings on record: 24 hours. Here is the method: HeLa cells were seeded DME media with 10% FBS in each of three wells in a 12-well tissue culture plate (Nalge Nunc International, Cat. #150628) at 125,000 cells/well. After an overnight incubation, phorbol myristate acetate (PMA) was added to final concentrations of 10, 1 and 0 nM in the growth medium. The cells were incubated at 37° C. for 24 hours. The medium was removed and the cells washed with PBS. The cells were incubated with 0.05% trypsin in 0.53 mM EDTA for 10 minutes at 37° C. to detach the cells. Cells were counted and concentration was determined. Cells were centrifuged at 800×g for 5 minutes. The medium was removed and the cells were washed once with PBS. Each cell pellet was suspended in PBS to obtain a stock solution of 10000 cells/μl. A five-fold serial dilution of the stock solution with PBS was carried out to give 10000, 2000 and 400 cells/0.10 μl of each dilution was added to 90 μl of Buffer at room temperature such that the final cell concentrations in the lysate were 1000, 200 and 40 cells/μl. The samples were gently shaken at room temperature (˜21° C.) for 1 to 2 min. As in EXAMPLE 1, cell lysate of 30% of the final reaction volume was added to a one step real-time RT-PCR reaction with primers and TaqMan probe for tissue plasminogen activator (t-PA) and 18S rRNA (EXAMPLE 8). The t-PA primer and probe sequences were as follows: Forward primer, 5′-[…]-3′ (SEQ ID NO. 34); Reverse primer, 5′-[…]-3′ (SEQ ID NO. 35); TaqMan Probe: 5′-(FAM)-[…]-(TAMRA)-3′ (SEQ ID NO. 36).
(In general: In qPCR the cycle at which signal appears reflects the starting amount.)

Turning to `O=C(O)c1ccco1` [2-furancarboxylic acid], in data set [1], the pKa (usually the negative logarithm of the acid dissociation constant) was 3.2.
As to `Cc1cc(C)c(C(=O)O)c(C)c1` [2,4,6-trimethylbenzoic acid], the pKa in data set [1] is recorded as 3.4.
Consider `O=C(O)C#CCl` [chloropropynoic acid], for which the pKa in data set [1] is 1.85.
On to `O=C(O)c1cccc(Br)c1` [3-bromobenzoic acid], for which the pKa in data set [1] is 3.8.
For `CC(C)(N)C(=O)O` [2-amino-2-methylpropionic acid], in data set [1], the pKa was 2.4.
Take `CC(=O)NCC(=O)O` [N-acetylglycine]: in data set [1], the pKa is listed as 3.7.
As for `CCC(=O)NCC(=O)O` [N-propionylglycine], the pKa in data set [1] is on record as 3.7.
`CC(=O)N[C@@H](C)C(=O)O` [N-acetylalanine]: the pKa in data set [1] is 3.7.
For the molecule `CC(C)(C)c1cccc(C(=O)O)c1` [3-tert-butylbenzoic acid], the pKa in data set [1] was 4.2.
Regarding `N#CCC(=O)O` [cyanoacetic acid], the pKa in data set [1] is 2.5.
`CC[C@H](C)[C@H](N)C(=O)O` [isoleucine]: the pKa in data set [1] is listed as 2.3.
`Cc1cc(C)c(C)c(C(=O)O)c1C` [2,3,5,6-tetramethylbenzoic acid]: in data set [1], the pKa is listed as 3.5.
With `CCCCCCCCCCCCCC(=O)O[C@@H]1[C@@H](C)[C@@]2(O)[C@@H](C=C(CO)C[C@]3(O)C(=O)C(C)=C[C@@H]23)[C@@H]2C(C)(C)[C@]12OC(C)=O` [PMA, phorbol myristate acetate], the “t-PA (fold increase compared to 0 nM PMA)” value in data set [2] (lysate 40 cells/μl, PMA 1 nM) was 16 fold; in data set [2] (lysate 40 cells/μl, PMA 10 nM), 147 fold; in data set [2] (lysate 200 cells/μl, PMA 1 nM) it was 9 fold; in data set [2] (lysate 200 cells/μl, PMA 10 nM), 62 fold; in data set [2] (lysate 1000 cells/μl, PMA 1 nM), 8 fold; in data set [2] (lysate 1000 cells/μl, PMA 10 nM), 39 fold.
On to `O=C(O)c1c(O)ccc2ccccc12` [2-hydroxy-1-naphthoic acid], for which, in data set [1], the pKa was 3.3.
As for `CC(C)(C#N)C(=O)O` [2-cyano-2-methylpropionic acid], the pKa in data set [1] is 2.4.
In the case of `CC(=O)NCCC(=O)O` [β-acetylaminopropionic acid], the pKa in data set [1] is reported as 4.4.
Take `O=C(O)c1ccc([N+](=O)[O-])cc1` [4-nitrobenzoic acid]: the pKa in data set [1] was 3.4.
Regarding `CCC(CC)C(=O)O` [2-ethylbutyric acid], the pKa in data set [1] is listed as 4.8.
As to `Nc1ccccc1S(=O)(=O)O` [2-aminobenzenesulfonic acid], the pKa in data set [1] is reported as 2.5.
As for `Nc1cccc(S(=O)(=O)O)c1` [3-aminobenzenesulfonic acid], in data set [1], the pKa was 3.7.
Consider `CCC(C)C(N)C(=O)O` (stereo not drawn) [2-amino-3-methylpentanoic acid], for which the pKa in data set [1] is recorded as 2.3.
With `C[C@H](NC(N)=O)C(=O)O` [N-carbamoylalanine], the pKa in data set [1] is 3.9.
Consider `CCCC(N)C(=O)O` (stereo not drawn) [2-aminopentanoic acid], for which, in data set [1], the pKa is 2.3.
With `CC(C)C(C(=O)O)C(=O)O` [isopropylmalonic acid], in data set [1], the pKa is listed as 2.4.
As to `Nc1ccc(S(=O)(=O)O)cc1` [4-aminobenzenesulfonic acid], the pKa in data set [1] is 3.2.
